Test results from PMC12511262 (European Journal of Clinical Pharmacology, 2025).
Like-named read-outs stand apart in the source and are kept apart here.

Tests used:
[1] = Population pharmacokinetic model of quizartinib (NONMEM v7.5) applied to the external evaluation dataset; format: in vivo, human; settings: popPK estimates
Text: Parameter values and covariate relationships were fixed according to those reported in the original publication, without any re-estimation or modification. Key model parameters were described at Table 2: Predictions were generated using recorded doses, sampling times, and covariate values from the evaluation dataset.

[2] = single oral dose of 60 mg [14C]-quizartinib, six healthy men; cited from earlier work
[3] = FLT3-ITD negative AML patients, steady state

bioavailability ([1]; human, plasma, oral, FLT3-ITD negative AML patients, steady state, read-out: F1 Bioavailability, Mean): 77%
bioavailability ([1]; human, plasma, oral, FLT3-ITD negative AML patients, steady state, read-out: F1 Bioavailability, Median): 75%
Vd ([1]; human, plasma, oral, FLT3-ITD negative AML patients, steady state, read-out: V2 Volume of distribution (central compartment), Mean): 219 L
Vd ([1]; human, plasma, oral, FLT3-ITD negative AML patients, steady state, read-out: V2 Volume of distribution (central compartment), Median): 227 L
half-life ([1]; human, plasma, oral, FLT3-ITD negative AML patients, steady state, read-out: t1/2 Half-life, Mean (converted)): 82.4 h
half-life ([1]; human, plasma, oral, FLT3-ITD negative AML patients, steady state, read-out: t1/2 Half-life, Median (converted)): 82.5 h
bioavailability ([1]; human, plasma, oral, median, read-out: bioavailability factor (F1), median): 75%
clearance ([1]; human, plasma, oral, median, read-out: median clearance (CL) (converted)): 29.3 mL/min
CL Clearance, Median [1, 3]: 1.76
KA Absorption rate constant, Mean [1, 3]: 1.68
KA Absorption rate constant, Median [1, 3]: 1.68
KE Elimination rate constant, Mean [1, 3]: 0.01
KE Elimination rate constant, Median [1, 3]: 0.01
CL Clearance, Mean ([1]; FLT3-ITD negative AML patients, steady state, oral quizartinib 30 mg daily with food (one patient 60 mg)): 1.97
V3 (peripheral compartment), median ([1]; median): 176.03 L
V4, median ([1]; median): 39.30 L
SMILES: CC(C)(C)c1cc(NC(=O)Nc2ccc(-c3cn4c(n3)sc3cc(OCCN5CCOCC5)ccc34)cc2)no1 [quizartinib]
time of maximum blood concentration post-dosing [2]: four
